Assay results taken from patent publication US10759787B2, “Benzofuran derivative, preparation method thereof and use thereof in medicine” (Jiangsu Hengrui Medicine Co., Ltd., priority 2015, dated 2020).

Tests used:
[1] = target: EZH2-A677G (Homo sapiens (Human), UniProt Q15910, A677G); test: EZH2-A677G mutant enzyme activity assay (HTRF); format: biochemical; conditions: read-out: IC50 for inhibiting the activity of enzyme EZH2-A677G
Protocol: Histone H3 biotin labeling and S-adenosyl methionine were respectively diluted to 50 nM and 50 μM with a kinase buffer, then added to a 384-well plate at 4 μl/well. The test compound was diluted with a kinase buffer (it was diluted from the highest concentration 30 μM in 10 fold concentration gradient to 7 concentration points), then added to the 384-well microtiter plate at 4 μl/well. The plate was incubated at room temperature for 2 hours. Histone H3K27 Me3 monoclonal antibody and Streptavidin-XL665 were diluted to 30 nM and 500 nM by HTRF detection buffer, then added to the 384-well microplate at 10 µl/well and incubated for 1 hour. A well without an EZH2 enzyme and a compound was used as a negative control, and a well with an EZH2 enzyme but without a compound was used as a positive control. […] The compound logarithm concentration vs the inhibition percentage relative to the positive control well was plotted using GraphPad Prism, then the IC50 values were calculated.

[2] = test system: Pfeiffer cells; test: In vitro anti-tumor cell growth assay (CellTiter-Glo), Pfeiffer; format: cell-based; conditions: Homo sapiens, 120 h; Pfeiffer cells (A677G mutant), 5 days; read-out: IC50 for inhibiting the growth activity of tumor cells (Pfeiffer) in vitro
Protocol: Test Example 2. Assay for Determining In Vitro Anti-Tumor Cell Growth Activity of the Example Compounds of the Present Invention
This method was used to determinate the inhibitory effect of the compounds of the present invention on the growth activity of tumor cells (Pfeiffer or WSU-DLCL2) in vitro. Pfeiffer cells carry A677G mutant, and WSU-DLCL2 cells carry Y641F mutant.
The lymphoma suspension cell line (Pfeiffer or WSU-DLCL2) was cultured in a RPMI-1640 medium containing 10% inactivated Fetal Bovine Serum, 100 U/mL penicillin, and 100 μg/mL streptomycin, and incubated in an incubator with 5% carbon dioxide at 37° C. under a saturated humidity condition, and passaged every 3-4 days.
A cell sudpension was prepared with a fresh cell medium, added to a 96-well cell culture plate at 8000 cells/well (Pfeiffer) or 2000 cells/well (WSU-DLCL2), and incubated in 5% carbon dioxide at 37° C. incubator overnight. On the day of the experiment, the EZH2 test compounds (final concentration: 20000, 2000, 200, 20, 2, 0.2 nM) were added into the experimental wells for 3 parallel wells per group. A control well with the medium alone but without cells was set up to obtain the background luminescent value. The cell culture plate was incubated in an incubator with 5% carbon dioxide at 37° C. for 5 days.
After the compounds were applied to the cells for 5 days, the cell culture plate was placed at room temperature for 30 minutes, then a CellTiter-Glo reagent equal to the volume of cell culture medium was added to each well. The contents were mixed on a shaker for 10 minutes, and the […] signal values were recorded. The cell growth inhibition rate was calculated, and the formula was: cell growth inhibiton rate=[(negative control control−experimental group)/(negative control group−background luminescent value)]×100%. The IC50 values (half inhibition rate IC50, i.e., a drug concentration that is required for 50% cell growth inhibition rate) were calculated by software from the cell growth inhibiton rate and the corresponding concentration.

Chain of EZH2-A677G (Q15910 whole entry A677G): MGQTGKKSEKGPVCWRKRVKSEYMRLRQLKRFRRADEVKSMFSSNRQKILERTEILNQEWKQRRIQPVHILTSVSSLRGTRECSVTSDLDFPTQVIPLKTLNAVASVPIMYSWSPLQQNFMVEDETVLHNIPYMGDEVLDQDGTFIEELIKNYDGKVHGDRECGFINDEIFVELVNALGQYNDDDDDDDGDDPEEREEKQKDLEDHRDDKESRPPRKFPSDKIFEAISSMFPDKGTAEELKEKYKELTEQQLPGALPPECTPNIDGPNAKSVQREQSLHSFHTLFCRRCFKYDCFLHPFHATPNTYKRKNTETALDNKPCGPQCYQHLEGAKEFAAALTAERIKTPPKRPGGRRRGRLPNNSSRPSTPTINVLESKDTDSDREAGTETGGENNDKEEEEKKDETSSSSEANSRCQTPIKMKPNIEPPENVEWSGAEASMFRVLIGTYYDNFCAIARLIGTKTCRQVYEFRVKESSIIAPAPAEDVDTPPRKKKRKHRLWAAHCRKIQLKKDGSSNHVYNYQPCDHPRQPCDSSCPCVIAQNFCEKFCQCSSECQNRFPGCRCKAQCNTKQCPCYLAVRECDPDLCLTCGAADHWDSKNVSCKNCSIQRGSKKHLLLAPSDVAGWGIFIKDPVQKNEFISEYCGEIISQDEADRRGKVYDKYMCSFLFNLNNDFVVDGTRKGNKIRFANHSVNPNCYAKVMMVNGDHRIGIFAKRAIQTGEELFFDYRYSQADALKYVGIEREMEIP
Chain of EZH2-A677G (O75530 whole entry partner): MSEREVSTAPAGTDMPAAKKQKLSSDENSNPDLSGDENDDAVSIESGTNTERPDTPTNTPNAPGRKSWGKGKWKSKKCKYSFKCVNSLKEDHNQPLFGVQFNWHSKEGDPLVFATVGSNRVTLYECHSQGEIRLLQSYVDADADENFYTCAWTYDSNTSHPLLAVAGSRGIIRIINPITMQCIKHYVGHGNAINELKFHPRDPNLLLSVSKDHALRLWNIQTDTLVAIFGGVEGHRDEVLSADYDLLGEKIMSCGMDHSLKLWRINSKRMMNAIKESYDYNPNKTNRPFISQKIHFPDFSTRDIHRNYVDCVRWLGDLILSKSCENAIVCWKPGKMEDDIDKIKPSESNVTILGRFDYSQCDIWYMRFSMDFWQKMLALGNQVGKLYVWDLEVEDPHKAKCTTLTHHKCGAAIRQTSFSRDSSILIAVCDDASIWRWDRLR
Chain of EZH2-A677G (Q15022 whole entry partner): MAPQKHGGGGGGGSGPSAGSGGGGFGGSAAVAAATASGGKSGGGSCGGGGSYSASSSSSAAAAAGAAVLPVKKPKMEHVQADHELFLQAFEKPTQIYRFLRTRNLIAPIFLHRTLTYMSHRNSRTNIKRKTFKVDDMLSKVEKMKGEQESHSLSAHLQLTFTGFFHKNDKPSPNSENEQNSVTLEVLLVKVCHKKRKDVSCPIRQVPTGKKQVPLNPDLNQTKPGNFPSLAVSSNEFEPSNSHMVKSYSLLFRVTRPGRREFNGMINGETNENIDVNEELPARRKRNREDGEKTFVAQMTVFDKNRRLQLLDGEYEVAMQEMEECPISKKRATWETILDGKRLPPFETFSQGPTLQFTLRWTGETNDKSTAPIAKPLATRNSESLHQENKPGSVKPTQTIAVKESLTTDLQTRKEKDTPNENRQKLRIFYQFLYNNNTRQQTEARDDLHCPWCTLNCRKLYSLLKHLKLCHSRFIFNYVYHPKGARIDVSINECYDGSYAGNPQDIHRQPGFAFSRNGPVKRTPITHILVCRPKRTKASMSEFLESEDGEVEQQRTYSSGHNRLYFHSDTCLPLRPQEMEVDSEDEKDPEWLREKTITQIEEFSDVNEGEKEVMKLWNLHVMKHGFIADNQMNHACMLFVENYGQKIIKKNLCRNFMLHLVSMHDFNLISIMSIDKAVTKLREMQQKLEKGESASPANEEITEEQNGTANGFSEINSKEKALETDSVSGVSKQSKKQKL
Chain of EZH2-A677G (Q09028 whole entry partner): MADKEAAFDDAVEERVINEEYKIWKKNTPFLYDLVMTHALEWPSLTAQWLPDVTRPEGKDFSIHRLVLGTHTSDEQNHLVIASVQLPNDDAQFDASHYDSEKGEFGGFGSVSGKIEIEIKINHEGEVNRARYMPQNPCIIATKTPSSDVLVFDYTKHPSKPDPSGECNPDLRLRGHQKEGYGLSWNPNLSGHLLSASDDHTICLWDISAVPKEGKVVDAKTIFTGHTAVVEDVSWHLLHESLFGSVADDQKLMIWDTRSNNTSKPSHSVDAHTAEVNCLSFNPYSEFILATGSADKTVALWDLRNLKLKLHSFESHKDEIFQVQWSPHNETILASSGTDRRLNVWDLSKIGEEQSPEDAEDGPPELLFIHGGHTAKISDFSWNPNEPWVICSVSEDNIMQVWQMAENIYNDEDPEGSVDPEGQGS
Chain of EZH2-A677G (Q6ZN18 whole entry partner): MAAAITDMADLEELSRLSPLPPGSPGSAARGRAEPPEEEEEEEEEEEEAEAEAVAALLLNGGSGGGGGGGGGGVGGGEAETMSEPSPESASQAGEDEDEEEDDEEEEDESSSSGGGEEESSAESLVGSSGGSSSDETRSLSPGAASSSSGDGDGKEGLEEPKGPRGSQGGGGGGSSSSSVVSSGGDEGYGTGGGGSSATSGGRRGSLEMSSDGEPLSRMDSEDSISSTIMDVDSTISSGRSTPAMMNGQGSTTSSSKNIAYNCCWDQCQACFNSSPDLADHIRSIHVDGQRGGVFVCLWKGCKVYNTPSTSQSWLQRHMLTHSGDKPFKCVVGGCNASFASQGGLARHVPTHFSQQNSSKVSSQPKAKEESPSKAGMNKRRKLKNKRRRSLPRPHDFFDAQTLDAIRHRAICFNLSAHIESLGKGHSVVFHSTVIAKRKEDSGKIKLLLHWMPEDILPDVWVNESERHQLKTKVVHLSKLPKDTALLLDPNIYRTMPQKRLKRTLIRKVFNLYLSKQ

| SMILES | IC50 [1] [nM] | IC50 [2] [nM] |
| --- | --- | --- |
| CCN(c1cc2oc(CN3CCCCC3)cc2c(C(=O)NCc2c(OC)cc(C)[nH]c2=O)c1C)C1CCOCC1 [Example 4, 6-(Ethyl(tetrahydro-2H-pyran-4-yl)amino)-N-((4-methoxy-6-methyl-2-oxo-1,2-dihydropyridin-3-yl)methyl)-5-methyl-2-(piperidin-1-ylmethyl)benzofuran-4-carboxamide] | 14 | 19 |
| CCc1c(N(CC)C2CCOCC2)cc2oc(CN3CCN(C(C)C)CC3)cc2c1C(=O)NCc1c(OC)cc(C)[nH]c1=O [Example 5, 5-Ethyl-6-(ethyl(tetrahydro-2H-pyran-4-yl)amino)-2-((4-isopropylpiperazin-1-yl)methyl)-N-((4-methoxy-6-methyl-2-oxo-1,2-dihydropyridin-3-yl)methyl)benzofuran-4-carboxamide] | 1.2 | 19 |
| CCc1c(N(CC)C2CCOCC2)cc2oc(CN3CCOCC3)cc2c1C(=O)NCc1c(OC)cc(C)[nH]c1=O [Example 6, 5-Ethyl-6-(ethyl(tetrahydro-2H-pyran-4-yl)amino)-N-((4-methoxy-6-methyl-2-oxo-1,2-dihydropyridin-3-yl)methyl)-2-(morpholinomethyl)benzofuran-4-carboxamide] | 7.8 | 3 |
| CCc1c(N(CC)C2CCOCC2)cc2oc(CN3CCC(F)(F)CC3)cc2c1C(=O)NCc1c(OC)cc(C)[nH]c1=O [Example 7, 2-((4,4-Difluoropiperidin-1-yl)methyl)-5-ethyl-6-(ethyl(tetrahydro-2H-pyran-4-yl)amino)-N-((4-methoxy-6-methyl-2-oxo-1,2-dihydropyridin-3-yl)methyl)benzofuran-4-carboxamide] | 3.5 | 11 |
| CCc1c(N(CC)C2CCOCC2)cc2oc(CN3CCCC3)cc2c1C(=O)NCc1c(OC)cc(C)[nH]c1=O [Example 8, 5-Ethyl-6-(ethyl(tetrahydro-2H-pyran-4-yl)amino)-N-((4-methoxy-6-methyl-2-oxo-1,2-dihydropyridin-3-yl)methyl)-2-(pyrrolidin-1-ylmethyl)benzofuran-4-carboxamide] | 6.2 | 12 |
| CCc1c(N(CC)C2CCOCC2)cc2oc(C3CCN(C(C)C)CC3)cc2c1C(=O)NCc1c(OC)cc(C)[nH]c1=O [Example 10, 5-Ethyl-6-(ethyl(tetrahydro-2H-pyran-4-yl)amino)-2-(1-isopropylpiperidin-4-yl)-N-((4-methoxy-6-methyl-2-oxo-1,2-dihydropyridin-3-yl)methyl)benzofuran-4-carboxamide] | 1.7 | 5 |
| CCc1c(N(CC)C2CCOCC2)cc2oc(CN3CCN(CC(C)(C)O)CC3)cc2c1C(=O)NCc1c(C)cc(C)[nH]c1=O [Example 11, N-((4,6-Dimethyl-2-oxo-1,2-dihydropyridin-3-yl)methyl)-5-ethyl-6-(ethyl(tetrahydro-2H-pyran-4-yl)amino)-2-((4-(2-hydroxy-2-methylpropyl)piperazin-1-yl)methyl)benzofuran-4-carboxamide] | 5.6 | 22 |
| CCc1c(N(CC)C2CCOCC2)cc2oc(C3CCCC3)cc2c1C(=O)NCc1c(C)cc(C)[nH]c1=O [Example 14, 2-Cyclopentyl-N-((4,6-dimethyl-2-oxo-1,2-dihydropyridin-3-yl)methyl)-5-ethyl-6-(ethyl(tetrahydro-2H-pyran-4-yl)amino)benzofuran-4-carboxamide] | 9.6 | – |
| CCN(c1cc2occc2c(C(=O)NCc2c(OC)cc(C)[nH]c2=O)c1Cl)C1CCOCC1 [Example 22, 5-Chloro-6-(ethyl(tetrahydro-2H-pyran-4-yl)amino)-N-((4-methoxy-6-methyl-2-oxo-1,2-dihydropyridin-3-yl)methyl)benzofuran-4-carboxamide] | 6.5 | – |
| CCc1c(N(CC2CC2)C2CCN(CC(F)(F)F)CC2)cc2occc2c1C(=O)NCc1c(OC)cc(C)[nH]c1=O [Example 34, 6-((Cyclopropylmethyl)(1-(2,2,2-trifluoroethyl)piperidin-4-yl)amino)-5-ethyl-N-((4-methoxy-6-methyl-2-oxo-1,2-dihydropyridin-3-yl)methyl)benzofuran-4-carboxamide] | 14 | – |
